Experimental data: patent publication US9206156B2, “Substituted indole derivatives” (GRÜNENTHAL GMBH, priority 2008, dated 2015)

Columns and labels:
human μ-opiate receptor = target: T1, human μ-opiate receptor (Homo sapiens, UniProt P35372); test: μ-opiate receptor binding assay with [3H] naloxone (WGA-SPA beads); conditions: 1 μmol/l test substance, 1 nmol/l [3H] naloxone, CHO-K1 cell membranes expressing human μ-opiate receptor
T1 construct: purchased NEN, Zaventem, Belgium RB-HOM; host or cells: CHO-K1 cells (membrane preparation)
T1 sequence (P35372 whole entry): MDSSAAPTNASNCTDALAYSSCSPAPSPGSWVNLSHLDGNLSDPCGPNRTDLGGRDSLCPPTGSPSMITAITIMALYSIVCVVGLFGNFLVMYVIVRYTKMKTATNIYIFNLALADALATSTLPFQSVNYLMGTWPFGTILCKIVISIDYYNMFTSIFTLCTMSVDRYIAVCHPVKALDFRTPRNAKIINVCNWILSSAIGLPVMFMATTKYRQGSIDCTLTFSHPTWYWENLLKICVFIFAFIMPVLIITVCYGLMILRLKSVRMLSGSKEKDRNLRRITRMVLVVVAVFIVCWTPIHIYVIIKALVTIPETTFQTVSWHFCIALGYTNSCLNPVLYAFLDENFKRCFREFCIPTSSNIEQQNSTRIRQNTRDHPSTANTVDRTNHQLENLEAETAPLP
Summary of the method: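 Scintillation proximity readout: [3H]naloxone (1 nmol/l) displacement measured after 90 min, room temperature, on human μ-receptor CHO-K1 membranes in Tris-HCl/azide/BSA buffer; 25 μmol/l naloxone defined non-specific binding. Values are % specific-binding inhibition at 1 μmol/l, or Ki from IC50 (Cheng-Prusoff).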

ORL1 receptor = target: T2, ORL1 receptor (Homo sapiens, UniProt P41146); test: ORL1 receptor binding assay with 3H-nociceptin/orphanin FQ (WGA-SPA beads); conditions: c=1 μM test substance; 0.5 nM 3H-nociceptin/orphanin FQ; membranes of recombinant CHO-ORL1 cells
T2 construct: expressed in transfected cells; host or cells: CHO (recombinant CHO-ORL1 cells), membranes
T2 sequence (P41146 whole entry): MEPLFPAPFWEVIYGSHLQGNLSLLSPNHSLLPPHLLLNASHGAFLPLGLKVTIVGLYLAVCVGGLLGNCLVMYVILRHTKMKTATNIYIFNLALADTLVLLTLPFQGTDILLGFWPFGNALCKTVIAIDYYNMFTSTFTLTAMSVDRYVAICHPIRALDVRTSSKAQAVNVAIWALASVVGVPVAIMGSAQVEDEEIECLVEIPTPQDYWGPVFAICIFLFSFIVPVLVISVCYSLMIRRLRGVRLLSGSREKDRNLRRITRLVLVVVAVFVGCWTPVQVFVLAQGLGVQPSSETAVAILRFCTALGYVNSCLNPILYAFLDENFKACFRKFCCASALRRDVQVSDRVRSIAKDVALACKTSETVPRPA
Summary of the method: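 Affinity given as nanomolar Ki or as % inhibition at c=1 μM. Membranes of CHO cells expressing recombinant ORL1 (20 μg protein) were incubated one hour at room temperature with 0.5 nM 3H-nociceptin/orphanin FQ in Hepes 50 mM, pH 7.4, plus MgCl2 and EDTA; bound ligand detected by SPA bead scintillation counting.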

## CN(C)C1(c2cccs2)CCN(C(=O)CC(NCc2cccc3[nH]ccc23)c2ccccc2)CC1 (centres unmarked) [Example 174, 3-((1H-indol-4-yl)methylamino)-1-(4-(dimethylamino)-4-(thiophen-2-yl)piperidin-1-yl)-3-phenylpropan-1-one]
Human μ-opiate receptor
  inhibition at 1 µM: 92%
ORL1 receptor
  inhibition at 1 µM: 68%

## CN(CCN1CCC(c2ccccc2)(N2CCCC2)CC1)C(=O)C1CCCc2c1[nH]c1ccc(Cl)cc21 (centres unmarked) [Example 42, 6-Chloro-N-methyl-N-(2-(4-phenyl-4-(pyrrolidin-1-yl)piperidin-1-yl)ethyl)-2,3,4,9-tetrahydro-1H-carbazole-1-carboxamide]
Human μ-opiate receptor
  inhibition at 1 µM: 28%
ORL1 receptor
  inhibition at 1 µM: 22%

## CN(C(=O)C1CCCc2c1[nH]c1ccc(Cl)cc21)C(C(=O)N1CCC(c2cccs2)(N(C)C)CC1)c1ccccc1 (centres unmarked) [Example 134, 6-chloro-N-(2-(4-(dimethylamino)-4-(thiophen-2-yl)piperidin-1-yl)-2-oxo-1-phenylethyl)-N-methyl-2,3,4,9-tetrahydro-1H-carbazole-1-carboxamide]
Human μ-opiate receptor
  inhibition at 1 µM: 34%
ORL1 receptor
  inhibition at 1 µM: 29%

## CN(CCCN1CCC(c2ccccc2)(N(C)C)CC1)C(=O)c1ccc2ccn(C)c2c1 [Example 39, N-(3-(4-(Dimethylamino)-4-phenylpiperidin-1-yl)propyl)-N,1-dimethyl-1H-indole-6-carboxamide]
Human μ-opiate receptor
  inhibition at 1 µM: 76%
ORL1 receptor
  inhibition at 1 µM: 32%

## CN(C)C1(c2cccs2)CCN(CCNCc2c[nH]c3ccccc23)CC1 [Example 179, 1-(2-((1H-indol-3-yl)methylamino)ethyl)-N,N-dimethyl-4-(thiophen-2-yl)piperidin-4-amine]
Human μ-opiate receptor
  inhibition at 1 µM: 76%
ORL1 receptor
  inhibition at 1 µM: 97%

## CN(C)C1(c2ccccc2)CCN(C(=O)C2CCCN(C(=O)c3ccc4cc[nH]c4c3)C2)CC1 (centres unmarked) [Example 125, (1-(1H-indole-6-carbonyl)piperidin-3-yl)(4-(dimethylamino)-4-phenylpiperidin-1-yl)methanone]
Human μ-opiate receptor
  inhibition at 1 µM: 55%
ORL1 receptor
  inhibition at 1 µM: 42%

## CN(C)C1(c2cccs2)CCN(C(=O)CNCc2cccc3cc[nH]c23)CC1 [Example 172, 2-((1H-indol-7-yl)methylamino)-1-(4-(dimethylamino)-4-(thiophen-2-yl)piperidin-1-yl)ethanone]
Human μ-opiate receptor
  inhibition at 1 µM: 96%
ORL1 receptor
  inhibition at 1 µM: 67%

## CN(CCCN1CCC(c2ccccc2)(N(C)C)CC1)C(=O)c1ccc2cc[nH]c2c1 [Example 56, N-(3-(4-(Dimethylamino)-4-phenylpiperidin-1-yl)propyl)-N-methyl-1H-indole-6-carboxamide]
Human μ-opiate receptor
  inhibition at 1 µM: 71%
ORL1 receptor
  inhibition at 1 µM: 35%

## CCCCC1(N(C)C)CCN(CCN(C)Cc2cccc3cc[nH]c23)CC1 [Example 157, 1-(2-(((1H-indol-7-yl)methyl)(methy)amino)ethyl)-4-butyl-N,N-dimethylpiperidin-4-amine]
Human μ-opiate receptor
  % Inhibition (μ) at 1 μM: 96%
ORL1 receptor
  % Inhibition (ORL1) at 1 μM: 30%

## CN(C)C1(c2ccccc2)CCN(C(=O)CCNC(=O)c2cccc3c2ccn3C)CC1 [Example 121, N-(3-(4-(dimethylamino)-4-phenylpiperidin-1-yl)-3-oxopropyl)-1-methyl-1H-indole-4-carboxamide]
Human μ-opiate receptor
  inhibition at 1 µM: 88%
ORL1 receptor
  inhibition at 1 µM: 44%

## CN(C)C1(c2ccccc2)CCN(C(=O)C2CCCN(Cc3cccc4[nH]ccc34)C2)CC1 (centres unmarked) [Example 161, (1-((1H-indol-4-yl)methyl)piperidin-3-yl)(4-(dimethylamino)-4-phenylpiperidin-1-yl)methanone]
Human μ-opiate receptor
  inhibition at 1 µM: 66%
ORL1 receptor
  inhibition at 1 µM: 15%

## CC(CC(=O)N1CCCC(C(=O)N2CCC(c3ccccc3)(N(C)C)CC2)C1)c1c[nH]c2ccccc12 (centres unmarked) [Example 122, 1-(3-(4-(dimethylamino)-4-phenylpiperidine-1-carbonyl)piperidin-1-yl)-3-(1H-indol-3-yl)butan-1-one]
Human μ-opiate receptor
  inhibition at 1 µM: 84%
ORL1 receptor
  inhibition at 1 µM: 43%

## CN(C)C1(c2ccccc2)CCN(C(=O)CCNC(=O)CCc2cn(C)c3ccccc23)CC1 [Example 117, N-(3-(4-(dimethylamino)-4-phenylpiperidin-1-yl)-3-oxopropyl)-3-(1-methyl-1H-indol-3-yl)propanamide]
Human μ-opiate receptor
  inhibition at 1 µM: 79%
ORL1 receptor
  inhibition at 1 µM: 48%

## CN(CCCN1CCC(c2ccccc2)(N(C)C)CC1)C(=O)C1CCCc2c1[nH]c1ccc(Cl)cc21 (centres unmarked) [Example 35, 6-Chloro-N-(3-(4-(dimethylamino)-4-phenylpiperidin-1-yl)propyl)-N-methyl-2,3,4,9-tetrahydro-1H-carbazole-1-carboxamide]
Human μ-opiate receptor
  inhibition at 1 µM: 57%
ORL1 receptor
  inhibition at 1 µM: 79%

## CC(C)C(CC(=O)NCCN1CCC(c2cccs2)(N(C)C)CC1)c1c[nH]c2ccccc12 (centres unmarked) [Example 2, N-(2-(4-(Dimethylamino)-4-(thiophen-2-yl)piperidin-1-yl)ethyl)-3-(1H-indol-3-yl)-4-methylpentanamide]
Human μ-opiate receptor
  inhibition at 1 µM: 99%
ORL1 receptor
  inhibition at 1 µM: 96%

## CN(CCN1CCC(c2ccccc2)(N(C)C)CC1)C(=O)c1ccc2ccn(C)c2c1 [Example 29, N-(2-(4-(Dimethylamino)-4-phenylpiperidin-1-yl)ethyl)-N,1-dimethyl-1H-indole-6-carboxamide]
Human μ-opiate receptor; 1 µM
  % Inhibition (μ) at 1 μM: 94%
ORL1 receptor
  % Inhibition (ORL1) at 1 μM: 51%

## CN(CCCN1CCC(c2ccccc2)(N(C)C)CC1)C(=O)CCc1c[nH]c2ccccc12 [Example 61, N-(3-(4-(Dimethylamino)-4-phenylpiperidin-1-yl)propyl)-3-(1H-indol-3-yl)-N-methylpropanamide]
Human μ-opiate receptor
  inhibition at 1 µM: 89%
ORL1 receptor
  inhibition at 1 µM: 65%

## CC(CC(=O)NCCC(=O)N1CCC(c2ccccc2)(N(C)C)CC1)c1c[nH]c2ccccc12 (centres unmarked) [Example 92, N-(3-(4-(dimethylamino)-4-phenylpiperidin-1-yl)-3-oxopropyl)-3-(1H-indol-3-yl)butanamide]
Human μ-opiate receptor
  inhibition at 1 µM: 93%
ORL1 receptor
  inhibition at 1 µM: 88%

## CN(C(=O)c1ccc2ccn(C)c2c1)C(C(=O)N1CCC(c2cccs2)(N(C)C)CC1)c1ccccc1 (centres unmarked) [Example 111, N-(2-(4-(dimethylamino)-4-(thiophen-2-yl)piperidin-1-yl)-2-oxo-1-phenylethyl)-N,1-dimethyl-1H-indole-6-carboxamide]
Human μ-opiate receptor
  inhibition at 1 µM: 82%
ORL1 receptor
  inhibition at 1 µM: 60%

## COc1ccc2[nH]c(C(=O)NCCC(=O)N3CCC(c4ccccc4)(N(C)C)CC3)cc2c1 [Example 129, N-(3-(4-(dimethylamino)-4-phenylpiperidin-1-yl)-3-oxopropyl)-5-methoxy-1H-indole-2-carboxamide]
Human μ-opiate receptor
  inhibition at 1 µM: 73%
ORL1 receptor
  inhibition at 1 µM: 37%

## CN(CCCN1CCC(c2cccs2)(N(C)C)CC1)C(=O)c1cc2cc(F)ccc2[nH]1 [Example 15, N-(3-(4-(Dimethylamino)-4-(thiophen-2-yl)piperidin-1-yl)propyl)-5-fluoro-N-methyl-1H-indole-2-carboxamide]
Human μ-opiate receptor
  inhibition at 1 µM: 88%
ORL1 receptor
  inhibition at 1 µM: 58%

## CN(C)C1(c2ccccc2)CCN(C(=O)C2CCCN(C(=O)C3CCCc4c3[nH]c3ccc(Cl)cc43)C2)CC1 (centres unmarked) [Example 103, (6-chloro-2,3,4,9-tetrahydro-1H-carbazol-1-yl)(3-(4-(dimethylamino)-4-phenylpiperidine-1-carbonyl)piperidin-1-yl)methanone]
Human μ-opiate receptor
  inhibition at 1 µM: 35%
ORL1 receptor
  inhibition at 1 µM: 65%

## CN(C)C1(c2ccccc2)CCN(C(=O)C2CN(C(=O)c3ccc4ccn(C)c4c3)c3ccccc32)CC1 (centres unmarked) [Example 118, (4-(dimethylamino)-4-phenylpiperidin-1-yl)(1-(1-methyl-1H-indole-6-carbonyl)indolin-3-yl)methanone]
Human μ-opiate receptor
  inhibition at 1 µM: 97%
ORL1 receptor
  inhibition at 1 µM: 46%

## CC(C)C(CC(=O)NCCC(=O)N1CCC(c2ccccc2)(N(C)C)CC1)c1c[nH]c2ccccc12 (centres unmarked) [Example 84, N-(3-(4-(dimethylamino)-4-phenylpiperidin-1-yl)-3-oxopropyl)-3-(1H-indol-3-yl)-4-methylpentanamide]
Human μ-opiate receptor
  inhibition at 1 µM: 100%
ORL1 receptor
  inhibition at 1 µM: 95%

## CC(C)C(C(=O)N1CCC(c2ccccc2)(N(C)C)CC1)N(C)C(=O)CCc1cn(C)c2ccccc12 (centres unmarked) [Example 132, N-(1-(4-(dimethylamino)-4-phenylpiperidin-1-yl)-3-methyl-1-oxobutan-2-yl)-N-methyl-3-(1-methyl-1H-indol-3-yl)propanamide]
Human μ-opiate receptor
  inhibition at 1 µM: 63%
ORL1 receptor
  inhibition at 1 µM: 34%

## CN(CCCN1CCC(c2cccs2)(N(C)C)CC1)C(=O)c1ccc2cc[nH]c2c1 [Example 17, N-(3-(4-(Dimethylamino)-4-(thiophen-2-yl)piperidin-1-yl)propyl)-N-methyl-1H-indole-6-carboxamide]
Human μ-opiate receptor
  inhibition at 1 µM: 70%
ORL1 receptor
  inhibition at 1 µM: 38%

## CC(CC(=O)NC(CC(=O)N1CCC(c2cccs2)(N(C)C)CC1)c1ccccc1)c1c[nH]c2ccccc12 (centres unmarked) [Example 91, N-(3-(4-(dimethylamino)-4-(thiophen-2-yl)piperidin-1-yl)-3-oxo-1-phenylpropyl)-3-(1H-indol-3-yl)butanamide]
Human μ-opiate receptor
  inhibition at 1 µM: 97%
ORL1 receptor
  inhibition at 1 µM: 89%

## CN(C(=O)c1ccc2cc[nH]c2c1)C(C(=O)N1CCC(c2cccs2)(N(C)C)CC1)c1ccccc1 (centres unmarked) [Example 102, N-(2-(4-(dimethylamino)-4-(thiophen-2-yl)piperidin-1-yl)-2-oxo-1-phenylethyl)-N-methyl-1H-indole-6-carboxamide]
Human μ-opiate receptor
  inhibition at 1 µM: 66%
ORL1 receptor
  inhibition at 1 µM: 65%
